Assay results as given in US20170304388A1, “NEW INDICATION OF CARDIOVASCULAR DRUGS FOR PREPARATION OF CANCER INHIBITION PHARMACEUTICAL COMPOSITION” (LAUNX BIOMEDICAL CO., LTD., priority 2014, published 2017).
Where two headings read alike, the source gives them in different places.

Tests used:
Type in all cases: cell-based
[1] = test system: MCF7 (Mammary Gland, Adenocarcinoma); assay: Cell viability analysis (WST-1), MCF7; settings: Homo sapiens, MCF7, 72 h
[2] = test system: PC3 (Prostate Adenocarcinoma); assay: Cell viability analysis (WST-1), PC3; settings: 72 h
[3] = test system: U2OS; assay: Cell viability analysis (WST-1), U2OS; settings: Homo sapiens, U2OS, 72 h, Table 4, repeated experiments, drug 10 μM, read-out: survival rate (viability) of cancer cells, U2OS
Procedure, shortened: (§1)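 3000 cells/well; drug 10 μM, 72 h; diluted WST-1 (medium:stock 9:1), 37° C, 30–90 min; OD450 nm read, survival rate calculated.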

[4] = test system: Hep3B; assay: Cell viability analysis (WST-1), Hep3B; settings: Homo sapiens, Hep3B, 72 h, Table 4, repeated experiments, drug 10 μM, read-out: survival rate (viability) of cancer cells, Hep3B
Procedure, shortened: as §1

[5] = test system: 786-O; assay: Cell viability analysis (WST-1), 786-O; settings: Homo sapiens, 786-0, 72 h, Table 4, repeated experiments, drug 10 μM, read-out: survival rate (viability) of cancer cells, 786-O
Procedure, shortened: as §1

[6] = test system: A549 (Lung Adenocarcinoma); assay: Cell viability analysis (WST-1), A549; settings: Homo sapiens, A549, 72 h

## CCC(C)(C)C(=O)O[C@H]1C[C@@H](C)C=C2C=C[C@H](C)[C@H](CC[C@@H]3C[C@@H](O)CC(=O)O3)[C@H]21 [Simvastatin (Zocor), Simvastatin]
[1]; Table 3, drug 10 μM, WST-1, OD450 nm, read-out: survival rate (viability) of cancer cells, MCF7
  viability at 10 µM: 81.5%
[1]; Table 4, repeated experiments, drug 10 μM, WST-1, read-out: survival rate (viability) of cancer cells, MCF-7
  viability at 10 µM: 88.8%
[2]; Table 3, drug 10 μM, WST-1, OD450 nm, read-out: survival rate (viability) of cancer cells, PC3
  viability at 10 µM: 91.8%
[2]; Table 4, repeated experiments, drug 10 μM, WST-1, read-out: survival rate (viability) of cancer cells, PC-3
  viability at 10 µM: 92.8%
[3]
  viability at 10 µM: 65.6%
[4]
  viability at 10 µM: 114%
[5]
  viability at 10 µM: 87.8%
[6]; Table 3, drug 10 μM, WST-1, OD450 nm, read-out: survival rate (viability) of cancer cells, A549
  viability at 10 µM: 126%
[6]; Table 4, repeated experiments, drug 10 μM, WST-1, read-out: survival rate (viability) of cancer cells, A549
  viability at 10 µM: 110%
